One test deals with Female Brown Norway rats. The test can be described thus: Rat model for endometriosis, acute phase (4 day). It counts as in vivo. To be noted: rat 4 day endometriosis model, once daily p.o. 1, 5, 15, 60 mg/kg. As for the experimental part: 4. Rat Model for Endometriosis, Acute Phase Female Brown Norway rats (Charles-River) were treated p.o. with Compound Example 3 (doses: 1 mg/kg, 5 mg/kg, 15 mg/kg, 60 mg/kg) or vehicle alone (10% DMSO+90% phosphate buffered saline (PBS)). 2 h later all animals got under deep anesthesia a transplantation of 6 uterus pieces in the peritoneal cavity. The tissue was obtained from donor animals which were pre-treated with 3 μg s.c. Estradiol (E2) for 2 days to guarantee standardized conditions of the uterus tissue. The animals were treated once daily p.o. with Compound Example 3 (doses: 1 mg/kg, 5 mg/kg, 15 mg/kg, 60 mg/kg) or vehicle alone (10% DMSO+90% phosphate buffered saline (PBS). 4 days later the animals were sacrificed and the transplants as surrogate endometriosis lesion tissue were analyzed for markers of lesion activity (inflammatory cytokines and proliferation marker). This approach is mimicking the early inflammatory phase of endometriosis close to menstruation. Analysis For RNA expression analysis the lesions, were excised. RNA was isolated after homogenization of tissues in guanidinium thiocyanate using the RNeasy mini Kit (Qiagen) with DNase digestion. […] Relative mRNA levels were calculated using the comparative CT method using the RQ-Manager software (Applied Biosystems). […]

Test [1] deals with B6-Mice expressing the human B1 receptor. The test can be described thus: Mouse model for peritonitis (thioglycollate induced, peroxidase activity in lavage). To be noted: p.o. 30, 100 mg/kg, lavage 24 h after induction, significantly, FIG. 7. It counts as in vivo. As for the experimental part:
6. Mouse Model for Peritonitis
Black 6 (B6)-Mice expressing the human B1 receptor, lacking the murine B1 receptors which were specifically generated (B6-hBDKRB1 <tm1Arte>/N) and employed for a thioglycollate induced peritonitis model to test for effects of Bradykinin B1 receptor antagonism on peritoneal inflammation and related leukocyte trafficking which reflects the mode of actions underlying endometriosis.
Animals were treated p.o. with Compound Example 3 (doses: 30 mg/kg, 100 mg/kg) or respective vehicle (10% DMSO+90% phosphate buffered saline (PBS) alone 1 h before i.p. application of 1 ml 4% thioglycollate medium (in sterile PBS, matured for >4 weeks). The treatment with vehicle or Compund Example 3 was repeated 3 and 24 hours after induction of peritonitis. 24 h after peritonitis induction the animals were sacrificed and a lavage of peritoneal fluid performed. The resulting lavage is analysed for peroxidase enzyme activity which is reflecting number of activated neutrophils in the peritoneal cavity by peroxidase activity assay as follows:
Tetramethylbenzidine (TMB) dihydrochloride is used as a sensitive chromogen substrate for peroxidase. […]
Changes in optical densities (OD) are monitored in an ELISA plate-reader at 450 nm at 25° Celsius against the mixture of all solutions without the added sample homogenate. […]

Test [2] deals with female Sprague Daley rats. Put plainly: Cyclophosphamide-induced overactive bladder and cystitis (rats). It counts as in vivo, rat. The text has this:
12. Cyclophosphamide-Induced Overactive Bladder and Cystitis (Rats)
The aim of this study was to test the efficacy of Compound Examples on overactive bladder as well as on interstitial cystitis and bladder pain syndrome in cyclophosphamide-treated rats.
The experimental setup is adapted to a previous described protocol (Lecci A et al, Br J Pharmacol 130: 331-38, 2000).
Strong presence and target induction of BDKRB1 in comparison to BDKRB2 has been verified by gene expression analysis in bladders removed from rats after cyclophosphamide (100 mg/kg and 150 mg/kg i.p.) induction in contrast to bladders of naïve, untreated rats. Immunohistochemistry confirmed the presence of BDKRB1 in bladders of rats after model induction, too.
Briefly, female Sprague Daley rats (˜200 g) were housed under normal conditions for laboratory rats in a 12:12-h light:dark cycle. Rats have been weighed, the tested Compound Examples were dissolved in relevant vehicle (e.g. DMSO/Water) (5/95) (v/v) and have been administrated by oral gavage in different concentrations one hour before application of cyclophosphamide (150 mg/kg) by i.p. injection. Additional 1.5 hours after cyclophosphamide administration each rat was transferred to a metabolic cage and voiding frequency has been recorded for the next 15 hours. Total amount of urine (ml) was collected via a plastic tube attached to the metabolic cages. The urine collecting tube was connected to a weight-sensitive sensor and a pressure transducer connected via an amplifier (ADIstruments) to the data acquisition software program (LabChart, ADInstruments) and a computer. […] At the end of the experiment rats have been weighed and killed under isoflurane anaesthesia and bladders have been removed and weighed. The bladders' wet weight was normalized to 100 g of body weight of each rat and analysis has been performed using GraphPad Prism 7 program.

Structures are written as SMILES.

For `O=C(O)c1cc(NC(=O)C2(c3ccc(C(F)(F)F)cc3F)CC2)ccc1-c1cnn(C2CCC2)c1` [Example 3, 2-(1-Cyclobutyl-1H-pyrazol-4-yl)-5-[({1-[2-fluoro-4-(trifluoromethyl)phenyl]cyclopropyl}carbonyl)amino]benzoic acid], in the test with Female Brown Norway rats (FIG. 1), the “expression of proliferation marker (PCNA) in lesions” value is “decreased”. The “expression of inflammatory cytokines in lesions (TNF alpha, IL-1 beta, IL-6)” value in the test on Female Brown Norway rats (FIG. 2-4) is “decreased”. Further, the “signal specific for neutrophil influx into inflamed tissue (peroxidase activity)” value in test [1] is recorded as “reduced”. In addition, the “bladder weight normalized to 100 g of body weight” value in test [2] (60 mg/kg, compared to vehicle treatment, FIG. 11) was “significantly reduced”. The number of micturitions/hour result in test [2] (preventive single gavage 15 mg & 60 mg/kg, cyclophosphamide 150 mg/kg i.p., FIG. 9) is “efficacy on reducing”. The “AUC during the plateau phase of the micturition (4-10 hours after transfer to metabolic cages)” value in test [2] (preventive single gavage, both tested dosages 15 mg & 60 mg/kg, FIG. 10) is “significantly reduced”.

The values above are taken from patent publication US12023319B2, “Carboxylic acid aromatic amides” (priority 2016, dated 2024).
